Data from ChEMBL document CHEMBL3525941, “Comparison of in vitro metabolism of ticlopidine by human cytochrome P450 2B6 and rabbit cytochrome P450 2B4” (Drug Metab Dispos, 2011).

Key:
[1] = Retention time of the compound by HPLC-MS analysis; format: physicochemical
Cytochrome P450 2B6 [2] = molecular target: T1, Cytochrome P450 2B6 (Homo sapiens, UniProt P20813); assay: Activity of human CYP2B6 assessed as observed rate constant for enzyme-mediated compound formation treated with 1 uM ticlopidine by HPLC-MS analysis in presence of NADPH; format: ADME
T1 sequence (P20813 whole entry): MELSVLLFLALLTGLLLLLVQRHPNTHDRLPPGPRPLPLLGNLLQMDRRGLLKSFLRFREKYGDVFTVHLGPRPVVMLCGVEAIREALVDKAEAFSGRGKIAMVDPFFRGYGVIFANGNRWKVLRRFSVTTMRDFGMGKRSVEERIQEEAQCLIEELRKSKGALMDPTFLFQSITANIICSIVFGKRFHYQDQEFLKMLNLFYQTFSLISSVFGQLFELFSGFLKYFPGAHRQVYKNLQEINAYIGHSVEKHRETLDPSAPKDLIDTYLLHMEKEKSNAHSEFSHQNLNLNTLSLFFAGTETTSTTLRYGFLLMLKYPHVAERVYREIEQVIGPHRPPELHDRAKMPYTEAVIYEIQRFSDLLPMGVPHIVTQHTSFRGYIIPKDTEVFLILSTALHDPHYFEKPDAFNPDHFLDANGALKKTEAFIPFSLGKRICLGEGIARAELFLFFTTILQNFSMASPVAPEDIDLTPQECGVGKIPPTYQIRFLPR

Cytochrome P450 2B6 [3] = molecular target: T1, Cytochrome P450 2B6; assay: Activity of human CYP2B6 assessed as enzyme-mediated compound formation treated with 10 uM ticlopidine for 60 mins by HPLC-MS analysis in presence of NADPH; format: ADME; settings: 1 h
Cytochrome P450 2B4 [4] = molecular target: T2, Cytochrome P450 2B4 (Oryctolagus cuniculus, UniProt P00178); assay: Activity of rabbit CYP2B4 assessed as enzyme-mediated compound formation treated with 10 uM ticlopidine for 60 mins by HPLC-MS analysis in presence of NADPH; format: ADME; settings: 1 h
T2 sequence (P00178 whole entry): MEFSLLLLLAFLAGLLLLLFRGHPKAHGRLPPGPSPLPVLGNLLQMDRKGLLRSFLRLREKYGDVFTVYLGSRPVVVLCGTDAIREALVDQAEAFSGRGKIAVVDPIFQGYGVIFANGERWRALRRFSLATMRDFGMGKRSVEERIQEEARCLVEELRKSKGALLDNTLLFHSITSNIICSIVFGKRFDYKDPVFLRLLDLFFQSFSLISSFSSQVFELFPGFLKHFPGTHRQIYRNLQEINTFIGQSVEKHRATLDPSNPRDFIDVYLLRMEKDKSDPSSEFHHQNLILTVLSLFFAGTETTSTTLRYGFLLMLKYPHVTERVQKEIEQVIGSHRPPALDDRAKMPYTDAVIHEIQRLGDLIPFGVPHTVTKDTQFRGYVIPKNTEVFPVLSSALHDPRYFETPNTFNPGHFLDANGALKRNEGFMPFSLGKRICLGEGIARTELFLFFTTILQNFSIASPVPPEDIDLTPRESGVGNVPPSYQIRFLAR

Cytochrome P450 2B6 [5] = molecular target: T1, Cytochrome P450 2B6; assay: Activity of recombinant full-length CYP2B6 (unknown origin) expressed in baculovirus-infected insect cells assessed as enzyme-mediated compound formation treated with 10 uM ticlopidine for 60 mins by HPLC-MS analysis in presence of NADPH; format: ADME; settings: 1 h
Liver microsome = assay: Drug level in human liver microsomes assessed as compound formation treated with 10 uM ticlopidine for 60 mins by HPLC-MS analysis in presence of NADPH; format: ADME; settings: 1 h
Cytochrome P450 2B4 [6] = molecular target: T2, Cytochrome P450 2B4; assay: Activity of rabbit CYP2B4 assessed as observed rate constant for enzyme-mediated compound formation treated with 1 uM ticlopidine by HPLC-MS analysis in presence of NADPH; format: ADME
CYP2B6 = molecular target: T3, CYP2B6 (Homo sapiens, UniProt P20813); assay: Inhibition of human CYP2B6 assessed as inactivation rate constant at 100 uM for 2 mins by HPLC-MS analysis in presence of NADPH; format: ADME
T3 sequence (P20813 whole entry): T1 sequence (P20813 whole entry)

CYP2B4 = molecular target: T4, CYP2B4 (Oryctolagus cuniculus, UniProt P00178); assay: Inhibition of rabbit CYP2B4 assessed as inactivation rate constant at 100 uM for 2 mins by HPLC-MS analysis in presence of NADPH; format: ADME
T4 sequence (P00178 whole entry): T2 sequence (P00178 whole entry)

| Compound | Retention_time [1] [min] | kobs (Cytochrome P450 2B6 [2]) [min⁻¹] | Compound recovery (Cytochrome P450 2B6 [3]) | Compound recovery (Cytochrome P450 2B4 [4]) | Compound recovery (Cytochrome P450 2B6 [5]) | Compound recovery (Liver microsome) | kobs (Cytochrome P450 2B4 [6]) [min⁻¹] | kinact at 2 min, 100 µM (CYP2B6) [s⁻¹] | kinact at 2 min, 100 µM (CYP2B4) [s⁻¹] |
| --- | --- | --- | --- | --- | --- | --- | --- | --- | --- |
| OC1CN(Cc2ccccc2Cl)Cc2ccsc21 (stereo not given) | 4.56 | 0.48 | metabolite_detected | metabolite_detected | metabolite_detected | metabolite_detected | 0.49 |  |  |
| O=C1C=C2CN(Cc3ccccc3Cl)CCC2S1 (stereo not given) | 4.9 | 0.5 | metabolite_detected | metabolite_detected | metabolite_detected | metabolite_detected | 0.48 |  |  |
| Clc1ccccc1C[N+]1=Cc2ccsc2CC1 |  |  | metabolite_detected | metabolite_detected | metabolite_detected | metabolite_detected |  |  |  |
| Clc1ccccc1C[n+]1ccc2sccc2c1 |  |  | metabolite_detected | metabolite_detected | metabolite_detected | metabolite_detected | 0.56 |  |  |
| [O-][N+]1(Cc2ccccc2Cl)CCc2sccc2C1 (stereo not given) | 8 | 0.61 | metabolite_detected | metabolite_detected | metabolite_detected | metabolite_detected | 0.66 |  |  |
| CCOc1ccc2c(C(F)(F)F)cc(=O)oc2c1 |  |  |  |  |  |  |  | 0.00167 | 0.000333 |
| CC(NC(C)(C)C)C(=O)c1cccc(Cl)c1 (stereo not given) [BUPROPION] | 9.7 |  |  |  |  |  |  | 0.00533 | 0.00133 |
